Test results taken from BigSolDB 2.1.

C[C@@]12C[C@H]3OC(=O)[C@@H]1CO[C@]14O[C@@]5([C@H]2C1=O)[C@@]3(C)OC(=O)[C@@]5(O)CC[C@H]1[C@H]4C[C@@H](O)[C@@]2(O)CC=CC(=O)[C@]12C
solubility (mole fraction)
Conditions | in acetone | in chloroform | in ethanol | in ethyl acetate | in methanol | in water
283.2 K | 0.0173 | 0.0046 | 0.0039 | 0.003 | 0.0081 | 0.0012
293.2 K | 0.022 | 0.0047 | 0.0047 | 0.0032 | 0.0092 | 0.0021
298.2 K | 0.0238 | 0.0049 | 0.0058 | 0.0036 | 0.0101 | 0.0027
303.2 K | 0.0265 | 0.0053 | 0.0071 | 0.0042 | 0.0109 | 0.0028
308.2 K | 0.0286 | 0.0058 | 0.0089 | 0.0052 | 0.0122 | 0.0029
313.2 K | 0.0309 | 0.006 | 0.0107 | 0.0059 | 0.0159 | 0.003
